Laboratory results taken from patent US6399629B1, “Efflux pump inhibitors” (priority 1998, dated 2002).
Structures can show the parent of a compound that is named as a salt.

Tests used:
[1] = tested on: Pseudomonas aeruginosa PAM1001; experiment: microbe, parasite or virus in culture; assay type: cell-based; conditions: for inhibition at 20 µg/mL / inhibition at 40 µg/mL / inhibition at 2.5 µg/mL / inhibition at 5 µg/mL / inhibition at 10 µg/mL: Pseudomonas aeruginosa, PAM1001, read-out: Inhibition (%) of growth of P. aeruginosa PAM1001; for Inhibition (%) of growth of P. aeruginosa PAM1001: Levofloxacin 0.25 μg/mL
Experimental: For compounds labeled with the prefix ‘D’, potentiation is measured by inhibition of growth of Pseudomonas aeruginosa PAM1001 at varying concentrations of efflux pump inhibitors (EPIs) in the presence of levofloxacin (0.25 microg/mL). Bacteria are grown in Mueller Hinton Broth (MHB, Difco) with an initial inoculum of 1×10^6 CFU/mL. Kinetics of bacterial growth is monitored, during 18 h of incubation at 37° C., by measurement of the culture absorbance at 650 nm using a 96-well plate spectrophotometer (SpectraMax, Molecular Devices). The inhibitory effect of EPIs is expressed as a percentage of growth inhibition compared to a control bacterial culture grown in the presence of 0.25 microg/mL levofloxacin but without EPIs.

[2] = tested on: Pseudomonas aeruginosa PAM1001; experiment: checkerboard assay (broth microdilution): levofloxacin MIC in presence of efflux pump inhibitor; assay type: cell-based
Summary of the method: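 Checkerboard broth microdilution in Mueller Hinton Broth against P. aeruginosa PAM1001 (5×10^5 CFU/mL, early-log inoculum), levofloxacin and efflux pump inhibitor (up to 40 μg/mL) diluted along crossing axes. Plates incubated 20 h at 35° C; growth read at 650 nm and visually. Potentiation scored as reduced levofloxacin MIC.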

[3] = Concentration of Compound 2.5 μg/mL
[4] = Concentration of Compound 5 μg/mL
[5] = Concentration of Compound 10 μg/mL
[6] = Concentration of Compound 20 μg/mL
[7] = Concentration of Compound 40 μg/mL

| Compound | inhibition at 20 µg/mL [1] | inhibition at 40 µg/mL [1] | inhibition at 2.5 µg/mL [1] | inhibition at 5 µg/mL [1] | inhibition at 10 µg/mL [1] | Inhibition (%) of growth of P. aeruginosa PAM1001 [1, 3] | Inhibition (%) of growth of P. aeruginosa PAM1001 [1, 4] | Inhibition (%) of growth of P. aeruginosa PAM1001 [1, 5] | Inhibition (%) of growth of P. aeruginosa PAM1001 [1, 6] | Inhibition (%) of growth of P. aeruginosa PAM1001 [1, 7] | other results |
| --- | --- | --- | --- | --- | --- | --- | --- | --- | --- | --- | --- |
| N[C@H]1CN[C@H](C(=O)N2C[C@H](NC(=O)[C@H](O)CCc3ccccc3)C[C@H]2C(=O)Nc2cnc3ccccc3c2)C1 (mixture of isomers) [Compound D101, trans-4-Amino-L-Prolyl-trans-4-((R)-2-Hydroxy-4-Phenylbutyrylamino)-L-Proline 3-Quinolylamide Trihydrochloride] | 20% | 94% | – | – | – | – | – | – | – | – | – |
| NCC(=O)N[C@H]1CN[C@H](C(=O)N2C[C@H](NC(=O)[C@H](O)CCc3ccccc3)C[C@H]2C(=O)Nc2cnc3ccccc3c2)C1 (mixture of isomers) [Compound D103, trans-4-Glycylamino-L-Prolyl-trans-4-((R)-2-Hydroxy-4-Phenylbutyrylamino)-L-Proline 3-Quinolylamide Trihydrochloride] | 100% | 100% | 17% | 6% | 99% | – | – | – | – | – | – |
| NCC(=O)N[C@@H]1CN[C@H](C(=O)N2C[C@H](NC(=O)[C@H](O)CCc3ccccc3)C[C@H]2C(=O)Nc2cnc3ccccc3c2)C1 (mixture of isomers) [Compound D104, cis-4-Glycylamino-L-Prolyl-trans-4-((R)-2-Hydroxy-4-Phenylbutyrylamino)-L-Proline 3-Quinolylamide Trihydrochloride] | 62% | 100% | 18% | 19% | 14% | – | – | – | – | – | – |
| NCC(=O)N[C@@H]1CN[C@@H](C(=O)N2C[C@H](NC(=O)[C@H](O)CCc3ccccc3)C[C@H]2C(=O)Nc2cnc3ccccc3c2)C1 (mixture of isomers) [Compound D105, trans-4-Glycylamino-D-Prolyl-trans-4-((R)-2-Hydroxy-4-Phenylbutyrylamino)-L-proline 3-Quinolylamide Trihydrochloride] | 99% | 101% | 19% | 18% | 50% | – | – | – | – | – | – |
| NC[C@H]1CN[C@H](C(=O)N2C[C@H](NC(=O)[C@H](O)CCc3ccccc3)C[C@H]2C(=O)Nc2cnc3ccccc3c2)C1 (mixture of isomers) [Compound D109, trans-4-Aminomethyl-L-Prolyl-trans-4-((R)-2-Hydroxy-4-Phenylbutyrylamino)-L-Proline 3-Quinolylamide Trihydrochloride] | 100% | 100% | 17% | 21% | 98% | – | – | – | – | – | – |
| CNCC(=O)N1C[C@H](N)C[C@H]1C(=O)N1C[C@H](NC(=O)[C@H](O)CCc2ccccc2)C[C@H]1C(=O)Nc1cnc2ccccc2c1 (mixture of isomers) [Compound D111, 1-(N-Methylglycyl)-trans-4-Amino-L-Prolyl-trans-4-((R)-2-Hydroxy-4-Phenylbutyrylamino)-L-Proline 3-Quinolylamide Trihydrochloride] | 27% | 100% | 20% | 20% | 19% | – | – | – | – | – | – |
| N[C@H]1CCN[C@H](C(=O)N2C[C@H](NC(=O)[C@H](O)CCc3ccccc3)C[C@H]2C(=O)Nc2cnc3ccccc3c2)C1 (mixture of isomers) [Compound D112, trans-4-Amino-L-Pipecolinoyl-trans-4-((R)-2-Hydroxy-4-Phenylbutyrylamino)-L-Proline 3-Quinolylamide Trihydrochloride] | 58% | 101% | 20% | 20% | 17% | – | – | – | – | – | – |
| N[C@@H]1CCN[C@H](C(=O)N2C[C@H](NC(=O)[C@H](O)CCc3ccccc3)C[C@H]2C(=O)Nc2cnc3ccccc3c2)C1 (mixture of isomers) [Compound D113, cis-4-Amino-L-Pipecolinoyl-trans-4-((R)-2-Hydroxy-4-Phenylbutyrylamino)-L-Proline 3-Quinolylamide Trihydrochloride] | 15% | 100% | 20% | 32% | 15% | – | – | – | – | – | – |
| NCC(=O)N[C@H]1CCN[C@H](C(=O)N2C[C@H](NC(=O)[C@H](O)CCc3ccccc3)C[C@H]2C(=O)Nc2cnc3ccccc3c2)C1 (mixture of isomers) [Compound D114, trans-4-Glycylamino-L-Pipecolinoyl-trans-4-((R)-2-Hydroxy-4-Phenylbutyrylamino)-L-Proline 3-Quinolylamide Trihydrochloride] | 100% | 100% | 20% | 22% | 90% | – | – | – | – | – | – |
| CNCC(=O)N[C@H]1CN[C@H](C(=O)N2C[C@H](NC(=O)[C@H](O)CCc3ccccc3)C[C@H]2C(=O)Nc2cnc3ccccc3c2)C1.Cl.Cl.Cl (relative stereo) [Compound D106] | – | – | – | – | – | 19% | 19% | 20% | 19% | 100% | – |
| Cl.Cl.Cl.NC[C@H](O)C(=O)N[C@H]1CN[C@H](C(=O)N2C[C@H](NC(=O)[C@H](O)CCc3ccccc3)C[C@H]2C(=O)Nc2cnc3ccccc3c2)C1 (relative stereo) [Compound D108, trans-4-((S)-3-Amino-2-Hydroxypropionylamino)-L-Prolyl-trans-4-((R)-2-Hydroxy-4-Phenylbutyrylamino)-L-Proline 3-Quinolylamide Trihydrochlonde] | – | – | – | – | – | 23% | 22% | 22% | 100% | 101% | – |
| Cl.Cl.Cl.NCC(=O)N[C@@H]1CCN[C@H](C(=O)N2C[C@H](NC(=O)[C@H](O)CCc3ccccc3)C[C@H]2C(=O)Nc2cnc3ccccc3c2)C1 (relative stereo) [Compound D115, cis-4-Glycylamino-L-Pipecolinoyl-trans-4-((R)-2-Hydroxy-4-Phenylbutyrylamino)-L-Profine 3-Quinolylamide Trihydrochloride] | – | – | – | – | – | 15% | 16% | 8% | 50% | 100% | – |
| Cl.Cl.NCC(=O)N[C@H]1CN[C@H](C(=O)NCc2ccc(-c3ccccc3)cc2)C1 (relative stereo) [Compound D316, trans-4-Glycylmino-L-Proline 4-Phenylbenzylamide Dihydrochloride] | – | – | – | – | – | 20% | 20% | 21% | 82% | 100% | – |
| Cl.Cl.Cl.NCC(=O)N[C@H]1CN[C@H](C(=O)Nc2nc(-c3ccccc3)cs2)C1 (relative stereo) [Compound D326, trans 4GlycylaminoL-Proline 4-Phenylthiazol-2-ylamide Trihydrochloride] | – | – | – | – | – | 18% | 19% | 17% | 13% | 74% | – |
| (2S,4R)-4-(2-Aminoacetamido)-N-[4-benzyl-2-benzimidazolyl)ethyl]-2-pyrrolidinecarboxamide [Compound M99] | – | – | – | – | – | – | – | – | – | – | Levofloxacin MIC Against P. aerugiuosa PAM1001 in Presence of Efflux Pump Inhibitor (EPI), Minimum Inhibitory Concentration ([2]; EPI Conc. 0 μg/mL): 4 µg/mL; Levofloxacin MIC Against P. aerugiuosa PAM1001 in Presence of Efflux Pump Inhibitor (EPI), Minimum Inhibitory Concentration ([2]; EPI Conc. 0.625 μg/mL): 4 µg/mL; Levofloxacin MIC Against P. aerugiuosa PAM1001 in Presence of Efflux Pump Inhibitor (EPI), Minimum Inhibitory Concentration ([2]; EPI Conc. 1.25 μg/mL): 4 µg/mL; Levofloxacin MIC Against P. aerugiuosa PAM1001 in Presence of Efflux Pump Inhibitor (EPI), Minimum Inhibitory Concentration ([2]; EPI Conc. 2.5 μg/mL): 4 µg/mL; Levofloxacin MIC Against P. aerugiuosa PAM1001 in Presence of Efflux Pump Inhibitor (EPI), Minimum Inhibitory Concentration ([2]; EPI Conc. 5 μg/ mL): 4 µg/mL; Levofloxacin MIC Against P. aerugiuosa PAM1001 in Presence of Efflux Pump Inhibitor (EPI), Minimum Inhibitory Concentration ([2]; EPI Conc. 10 μg/mL): 4 µg/mL; Levofloxacin MIC Against P. aerugiuosa PAM1001 in Presence of Efflux Pump Inhibitor (EPI), Minimum Inhibitory Concentration ([2]; EPI Conc. 20 μg/mL): 0.06 µg/mL; Levofloxacin MIC Against P. aerugiuosa PAM1001 in Presence of Efflux Pump Inhibitor (EPI), Minimum Inhibitory Concentration ([2]; EPI Conc. 40 μg/mL): 0.03 µg/mL |
| (2S,4R)-4-(Aminompropionamido)-N-[(1R)-3-phenyl-1-(3-quinolylcarbamolyl)propyl]-2-pyrrolidinecarboxamide [Compound M5] | – | – | – | – | – | – | – | – | – | – | Levofloxacin MIC Against P. aerugiuosa PAM1001 in Presence of Efflux Pump Inhibitor (EPI), Minimum Inhibitory Concentration ([2]; EPI Conc. 0 μg/mL): 4 µg/mL; Levofloxacin MIC Against P. aerugiuosa PAM1001 in Presence of Efflux Pump Inhibitor (EPI), Minimum Inhibitory Concentration ([2]; EPI Conc. 0.625 μg/mL): 4 µg/mL; Levofloxacin MIC Against P. aerugiuosa PAM1001 in Presence of Efflux Pump Inhibitor (EPI), Minimum Inhibitory Concentration ([2]; EPI Conc. 1.25 μg/mL): 4 µg/mL; Levofloxacin MIC Against P. aerugiuosa PAM1001 in Presence of Efflux Pump Inhibitor (EPI), Minimum Inhibitory Concentration ([2]; EPI Conc. 2.5 μg/mL): 4 µg/mL; Levofloxacin MIC Against P. aerugiuosa PAM1001 in Presence of Efflux Pump Inhibitor (EPI), Minimum Inhibitory Concentration ([2]; EPI Conc. 5 μg/ mL): 2 µg/mL; Levofloxacin MIC Against P. aerugiuosa PAM1001 in Presence of Efflux Pump Inhibitor (EPI), Minimum Inhibitory Concentration ([2]; EPI Conc. 10 μg/mL): 2 µg/mL; Levofloxacin MIC Against P. aerugiuosa PAM1001 in Presence of Efflux Pump Inhibitor (EPI), Minimum Inhibitory Concentration ([2]; EPI Conc. 20 μg/mL): 0.50 µg/mL; Levofloxacin MIC Against P. aerugiuosa PAM1001 in Presence of Efflux Pump Inhibitor (EPI), Minimum Inhibitory Concentration ([2]; EPI Conc. 40 μg/mL): 0.008 µg/mL |
